Laboratory results published in the supplement of paper PMC10307832.

Legend:
Assay in all cases: relative viability (nuclei count vs DMSO), 5 days (fraction); higher = more cells survive
[1] = compound: Nc1nc2[nH]cc(CCc3ccc(C(=O)N[C@@H](CCC(=O)O)C(=O)O)cc3)c2c(=O)[nH]1 [Pemetrexed] + Cc1cc(Nc2cc(N3CCN(C)CC3)nc(Sc3ccc(NC(=O)C4CC4)cc3)n2)n[nH]1 [Tozasertib] (partner 0.1 µM)
In short: (§1)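 For relative viability, nuclei counts in treated wells were divided by those in vehicle wells. Lung cancer cell lines had been pin-tool dosed in 1536-well plates the day after seeding and cultured for 5 days, then fixed and stained in one step (final 0.05% Triton X-100, 1% formaldehyde, 1 ug/ml Hoechst) and imaged at 4×. Doses were one drug alone or a fixed anchor-drug dose plus five library-drug doses (not always all listed) in √10 steps, and values are duplicate-plate medians.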

[2] = compound: Nc1nc2[nH]cc(CCc3ccc(C(=O)N[C@@H](CCC(=O)O)C(=O)O)cc3)c2c(=O)[nH]1 [Pemetrexed] + O=C(c1cc(Cc2n[nH]c(=O)c3ccccc23)ccc1F)N1CCN(C(=O)C2CC2)CC1 [Olaparib] (partner 8 µM)
In short: as §1

[3] = compound: CC[C@H](Nc1ncnc2[nH]cnc12)c1nc2cccc(F)c2c(=O)n1-c1ccccc1 [Idelalisib] + COc1cc2c(Oc3ccc(NC(=O)C4(C(=O)Nc5ccc(F)cc5)CC4)cc3F)ccnc2cc1OCCCN1CCOCC1 [Foretinib] (partner 0.25 µM)
In short: as §1

[4] = compound: Nc1nc2[nH]cc(CCc3ccc(C(=O)N[C@@H](CCC(=O)O)C(=O)O)cc3)c2c(=O)[nH]1 [Pemetrexed] + CC(=O)Nc1cccc(-n2c(=O)n(C3CC3)c(=O)c3c(Nc4ccc(I)cc4F)n(C)c(=O)c(C)c32)c1 [Trametinib] (partner 0.02 µM)
In short: as §1

Cell Line	relative viability ([1]; first compound 0.002 µM)	relative viability ([1]; first compound 0.006325 µM)	relative viability ([1]; first compound 0.02 µM)	relative viability ([1]; first compound 0.06325 µM)	relative viability ([1]; first compound 0.2 µM)	relative viability ([2]; first compound 0.002 µM)	relative viability ([2]; first compound 0.006325 µM)	relative viability ([2]; first compound 0.02 µM)	relative viability ([2]; first compound 0.06325 µM)	relative viability ([2]; first compound 0.2 µM)	relative viability ([3]; first compound 0.04 µM)	relative viability ([3]; first compound 0.1265 µM)	relative viability ([3]; first compound 0.4 µM)	relative viability ([3]; first compound 1.265 µM)	relative viability ([3]; first compound 4 µM)	relative viability ([4]; first compound 0.002 µM)	relative viability ([4]; first compound 0.006325 µM)	relative viability ([4]; first compound 0.02 µM)	relative viability ([4]; first compound 0.06325 µM)	relative viability ([4]; first compound 0.2 µM)
NCI-H2023	0.245	0.338	0.364	0.379	0.223	0.431	0.463	0.456	0.36	0.158	0.92	0.859	0.617	0.739	0.637	0.502	0.553	0.537	0.392	0.183
NCI-H1437		0.402	0.37	0.357	0.228	0.619	0.625	0.656	0.54	0.385	1.24	1.32	1.24	1.36	1.42	0.362	0.473	0.424	0.382	0.285
BEN	0.547	0.423	0.57	0.548	0.457	1.07	1.01	1.05	0.97	0.891	0.751	0.567	0.539	0.856	0.661	1.19	0.942	1.08	0.884	1.05
LXF-289	0.165	0.19	0.194	0.163	0.183	1.07	1.04	1.1	1.03	0.976	0.946	0.979	0.928	1.14	0.951	0.685	0.673	0.729	0.676	0.637
NCI-H358	0.116	0.141	0.108	0.102	0.0813	0.582	0.622	0.66	0.397	0.151	0.782	0.701	0.554	0.652	0.734	0.133	0.117	0.151	0.125	0.125
NCI-H1993	0.68	0.46	0.523	0.615	0.506	0.885	1.02	1.21	1.06	0.798	0.967	0.843	0.649	0.837	0.737	0.457	0.439	0.551	0.522	0.549
NCI-H727	0.6	0.584	0.498	0.738	0.61	0.617	0.654	0.692	0.795	0.689	1.1	0.968	0.629	0.92	0.691	0.346	0.395	0.464	0.357	0.404
LOU-NH91	0.656	0.676	0.706	0.54	0.366	0.864	0.886	0.93	0.819	0.455	1.03	0.912	0.888	0.803	0.864	0.754	0.759	0.782	0.682	0.638
